# Experimental data from US20070021360A1, “Compositions, formulations and kit with anti-sense oligonucleotide and anti-inflammatory steroid and/or obiquinone for treatment of respiratory and lung disesase” (priority 2001, published 2007).
# Tests used:
# [1] = target: B2 bradykinin receptor (rabbit airway smooth muscle membranes) (rabbit) (UniProt Q28642); assay: radioligand binding, airway smooth muscle membranes; saline control rabbits
# [2] = target: B2 bradykinin receptor (rabbit airway smooth muscle membranes) (rabbit) (UniProt Q28642); assay: radioligand binding, airway smooth muscle membranes; rabbits treated with B2MM mismatch control, 0.2 mg
# [3] = target: B2 bradykinin receptor (rabbit airway smooth muscle membranes) (rabbit) (UniProt Q28642); assay: radioligand binding, airway smooth muscle membranes; rabbits treated with B2A bradykinin receptor anti-sense oligo, 2 mg
# [4] = target: B2 bradykinin receptor (rabbit airway smooth muscle membranes) (rabbit) (UniProt Q28642); assay: radioligand binding, airway smooth muscle membranes; rabbits treated with A1 receptor anti-sense oligo, 2 mg
# [5] = target: B2 bradykinin receptor (rabbit airway smooth muscle membranes) (rabbit) (UniProt Q28642); assay: radioligand binding, airway smooth muscle membranes; rabbits treated with B2A bradykinin receptor anti-sense oligo, 20 mg
# [6] = target: B2 bradykinin receptor (rabbit airway smooth muscle membranes) (rabbit) (UniProt Q28642); assay: radioligand binding, airway smooth muscle membranes; rabbits treated with A1MM1 mismatch control, 20 mg
# [7] = target: B2 bradykinin receptor (rabbit airway smooth muscle membranes) (rabbit) (UniProt Q28642); assay: radioligand binding, airway smooth muscle membranes; rabbits treated with A1MM1 mismatch control, 2 mg
# [8] = target: B2 bradykinin receptor (rabbit airway smooth muscle membranes) (rabbit) (UniProt Q28642); assay: radioligand binding, airway smooth muscle membranes; rabbits treated with B2MM mismatch control, 2 mg
# [9] = target: B2 bradykinin receptor (rabbit airway smooth muscle membranes) (rabbit) (UniProt Q28642); assay: radioligand binding, airway smooth muscle membranes; rabbits treated with A1 receptor anti-sense oligo, 0.2 mg
# [10] = target: B2 bradykinin receptor (rabbit airway smooth muscle membranes) (rabbit) (UniProt Q28642); assay: radioligand binding, airway smooth muscle membranes; rabbits treated with B2A bradykinin receptor anti-sense oligo, 0.2 mg
# [11] = target: B2 bradykinin receptor (rabbit airway smooth muscle membranes) (rabbit) (UniProt Q28642); assay: radioligand binding, airway smooth muscle membranes; rabbits treated with A1 receptor anti-sense oligo, 20 mg
# [12] = target: B2 bradykinin receptor (rabbit airway smooth muscle membranes) (rabbit) (UniProt Q28642); assay: radioligand binding, airway smooth muscle membranes; rabbits treated with B2MM mismatch control, 20 mg
# adenosine A1 receptor [13] = target: T1, adenosine A1 receptor (Oryctolagus cuniculus, UniProt P34970); settings: mismatch controls; Nyce & Metzger (1997); cited from earlier work
# T1 construct: Airway smooth muscle tissue was dissected from each rabbit and a membrane fraction prepared; from tissue; host or cells: rabbit airway smooth muscle, crude plasma membranes
# T1 sequence (P34970 1-328): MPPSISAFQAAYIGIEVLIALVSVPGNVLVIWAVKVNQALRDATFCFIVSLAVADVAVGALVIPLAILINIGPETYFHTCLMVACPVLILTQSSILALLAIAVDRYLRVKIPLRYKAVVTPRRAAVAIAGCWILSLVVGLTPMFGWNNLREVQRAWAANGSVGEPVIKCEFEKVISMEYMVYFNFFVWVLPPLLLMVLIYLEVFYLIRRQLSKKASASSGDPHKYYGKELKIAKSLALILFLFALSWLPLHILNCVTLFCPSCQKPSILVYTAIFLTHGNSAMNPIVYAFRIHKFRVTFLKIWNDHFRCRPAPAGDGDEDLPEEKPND
# allergic rabbits [14] = assay: Allergen-induced bronchial hyperresponsiveness (PC50 Histamine) in allergic rabbits; assay type: in vivo, rabbit; settings: compared to mismatched control; from PC50 Histamine value; p<0.05
# Experimental: Each allergic rabbit was administered histamine by aerosol to determine their baseline hyperresponsiveness. Aerosols of either saline or hitamine were generated using a DeVilbiss nebulizer (DeVilbiss, Somerset, Pa.) for 30 seconds and then for 2 minutes at each dose employed. The ultrasonic nebulizer produced aerosol droplets of which 80% were <5 micron in diameter. The histamine aerosol was administered in increasing concentrations (0.156 to 80 mg/ml) and measurements of pulmonary function were made after each dose. The […] was then determined by calculating the concentration of histamine (mg/ml) required to reduce the Cdyn 50% from baseline (PC50 Histamine)
# adenosine A1 receptor [15] = assay: Adenosine-induced bronchoconstriction (PC50 Adenosine) in allergic rabbits; assay type: in vivo; settings: allergic rabbits; for effect on PC50 Adenosine value: cross-over experiment, 20 mg total aerosolized oligo
# Experimental: A fortuitous hoology between the rabbit and human DNA sequences within the adenosine A1 gene overlapping the initiation codon permitted the use of the phosphorothioate anti-sense oligonucleotides initially designed for use against the human adenosine A1 receptor in a rabbit model. Neonatal New Zealand white Pasteurella-free rabbits were immunized intraperitoneally within 24 hours of birth with 312 antigen units/ml house dust mite (D. farinae) extract (Berkeley Biologicals, Berkeley, Calif.), mixed with 10% kaolin. Immunizations were repeated weekly for the first month and then biweekly for the next 2 months. At 3-4 months of age, eight sensitized rabbits were anesthetized and relaxed with a mixture of ketamine hydrochloride (44 mg/kg) and acepromazine maleate (0.4 mg/kg) administered intramuscularly. The rabbits were then laid supine in a comfortable position on a small molded, padded animal board and intubated with a 4.0-mm intratracheal tube (Mallinkrodt, Inc., Glens Falls, N.Y.). A polyethylene catheter of external diameter 2.4 mm with an attached latex balloon was passed into the esophagus and maintained at the same distance (approximately 16 cm) from the mouth throughout the experiments. The intratracheal tube was attached to a heated Fleisch pneumotachograph (size 00; DOM Medical, Richmond, Va.), and flow was measured using a Validyne differential pressure transducer (Model DP-45161927; Validyne Engineering Corp., Northridge, Calif.) driven by a Gould carrier amplifier (Model 11-4113; Gould Electronic, Cleveland, Ohio). The esophageal balloon was attached to one side of the differential pressure transducer, and the outflow of the intratracheal tube was connected to the opposite side of the pressure transducer to allow recording of transpulmonary pressure. Flow was integrated to give a continuous tidal volume, and measurements of total lung resistance (RL) and dynamic compliance (Cdyn) were calculated at isovolumetric and flow zero points, respectively, using an automated respiratory analyzer (Model 6; Buxco, Sharon, Conn.). Animals were randomized and on Day 1 pretreatment values for PC50 were obtained for aerosolized adenosine. Anti-sense (HAdA1AS) or mismatched control (HAdA1MM) oligonucleotides were dissolved in sterile physiological saline at a concentration of 5000 μg (5 mg) per 1.0 ml. […] Aerosols of either saline, adenosine, or anti-sense or mismatch oligonucleotides were generated by an ultrasonic nebulizer (DeVilbiss, Somerset, Pa.), producing aerosol droplets 80% of which were smaller than 5:m in diameter. In the first arm of the experiment, four randomly selected allergic rabbits were administered anti-sense oligonucleotide and four the mismatched control oligonucleotide. On the morning of the third day, PC50 values (the concentration of aerosolized adenosine in mg/ml required to reduce the dynamic compliance of the bronchial airway 50% from the baseline value) were obtained and compared to PC50 values obtained for these animals prior to exposure to oligonucleotide. Following a 1 week interval, animals were crossed over, with those previously administered mismatch control oligonucleotide now administered anti-sense oligonucleotide, and those previously treated with anti-sense oligonucleotide now administered mismatch control oligonucleotide. Treatment methods and measurements were identical to those employed in the first arm of the experiment. […] For the purpose of calculation, PC50 values for these animals were set at 20 mg/ml. The values given therefore represent a minimum figure for anti-sense effectiveness. Actual effectiveness was higher.
# Aerosols of either adenosine (0-20 mglnml), or anti-sense or one of two mismatch oligonucleotides (5 mg/ml) were separately prepared with an ultrasonic nebulizer (Model 646, DeVilbiss, Somerset, Pa.), which produced aerosol droplets, 80% of which were smaller than 5:m in diameter. […]
# allergic rabbits [16] = assay: Allergen-induced airway obstruction in allergic rabbits; assay type: in vivo, rabbit; settings: compared with mismatched control; from area under the plotted curve; p<0.05
# Intracellular Adenosine = assay: In vivo effect on adenosine levels in rat tissues (HPLC); design: species or system Fischer 344 rats
# Experimental: Folinic acid (50 mg/kg) was administered intraperitoneally once daily for fourteen days. […] Hearts were removed from animals and flash frozen in liquid nitrogen with 10 seconds of death. Liver and lungs were removed en bloc and flash frozen with 30 seconds of death. Brain tissue was subsequently dissected.
# HT-29 SF cells [17] = assay: Reversal of DHEA effect on cell cycle; assay type: cell-based, human; settings: 25 FM DHEA; supplement in medium; 48 and 72 hours
# HT-29 SF cells [18] = assay: Reversal of DHEA-mediated growth inhibition; assay type: cell-based, human; settings: 25 μM DHEA; supplement in medium; 48 hours
# adenosine A3 receptor = assay: Inflammatory cells in bronchial lavage fluid after dust mite allergen; assay type: in vivo, rabbit; settings: allergic rabbits, 20 mg oligo, lavage 3 hours later
# Experimental: The number of inflammatory cells was determined in their bronchial lavage fluid 3 hours later by counting at least 100 viable cells per lavage. The effect of anti-sense oligos III (SEQ ID NO: 9377) and IV (SEQ ID NO: 9378) upon granulocytes, and upon total cells in bronchial lavage were assessed following exposure to dust mite allergen. […] As is known in the art, granulocytes, especially eosinophils, are the primary inflammatory cells of asthma and the administration of anti-sense oligos III (SEQ ID NO: 9377) and IV (SEQ ID NO: 9378) reduced their numbers by 40% and 66%, respectively. […] This is also an important indicator of anti-inflammatory activity by the present anti-adenosine A3 agents of the invention. Inflammation is known to underlie bronchial hyperresponsiveness and allergen-induced bronchoconstriction in asthma. Both anti-sense oligonucleotides III (SEQ ID NO: 9377) and IV (SEQ ED NO: 9378), which are targeted to the adenosine A3 receptor, are representative of an important new class of anti-inflammatory agents which may be designed to specifically target the lung receptors of each species.
# [19] = daily for two weeks, DHEA or high dose methyltestosterone
# [20] = methyltestosterone 120 mg/kg, mean ± SEM
# [21] = once daily 14 days, DHEA 300 mg/kg, methyltestosterone 40 mg/kg (120 mg/kg in M + F.A.), folinic acid 50 mg/kg, mean ± SEM
# Sequence of B2 bradykinin receptor (rabbit airway smooth muscle membranes) (rabbit) (Q28642 whole entry): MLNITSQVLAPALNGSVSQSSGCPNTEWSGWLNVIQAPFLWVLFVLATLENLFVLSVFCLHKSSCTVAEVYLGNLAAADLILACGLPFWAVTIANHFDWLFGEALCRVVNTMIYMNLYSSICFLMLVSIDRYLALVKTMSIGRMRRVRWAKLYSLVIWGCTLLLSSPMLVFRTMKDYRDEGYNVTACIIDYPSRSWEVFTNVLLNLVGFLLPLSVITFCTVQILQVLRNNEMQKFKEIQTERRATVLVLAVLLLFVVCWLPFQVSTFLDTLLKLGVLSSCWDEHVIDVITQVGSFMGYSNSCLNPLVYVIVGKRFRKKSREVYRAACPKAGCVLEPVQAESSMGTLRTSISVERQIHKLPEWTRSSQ
compound,measurement,setting,value
[3H]NPC 17731 (peptide),Kd,[1],0.39 nM
same,Kd,[2],0.36 nM
same,Kd,[3],0.34 nM
same,Kd,[4],0.41 nM
same,Kd,[5],0.38 nM
same,Kd,[6],0.35 nM
same,Kd,[7],0.38 nM
same,Kd,[8],0.37 nM
same,Kd,[9],0.34 nM
same,Kd,[10],0.35 nM
same,Kd,[11],0.39 nM
same,Kd,[12],0.41 nM
"5′-GTAGGTGGCGGGCAAGGCGGG-3′ (antisense GTAGGTGGCGGGCAAGGCGGG; phosphorothioate, further chemistry not given here) [Oligo A1MM2, mismatch control for anti-sense oligo I, reference compound]","effect upon any of the targeted receptors (A1, A2 or B2)",adenosine A1 receptor [13],absolutely no effect
same,inhibition of allergen-induced BHR,allergic rabbits [14],complete lack of effect
same,PC50 Adenosine,adenosine A1 receptor [15]; Total Dose 0.2 mg,2.51 ± 0.46 mg Adenosine
same,PC50 Adenosine,adenosine A1 receptor [15]; Total Dose 2.0 mg,3.13 ± 0.71 mg Adenosine
same,PC50 Adenosine,adenosine A1 receptor [15]; Total Dose 20 mg,3.25 ± 0.34 mg Adenosine
same,effect on PC50 Adenosine value,adenosine A1 receptor [15],no effect
same,inhibition of allergen-induced airway obstruction,allergic rabbits [16],complete lack of effect
"C[C@]12CCC(=O)C=C1CC[C@@H]1[C@@H]2CC[C@@]2(C)[C@H]1CC[C@]2(C)O [Methyltestosterone, methyltestosterone]",depletion of adenosine in brain,Intracellular Adenosine; [19],34%
same,depletion of adenosine in heart,Intracellular Adenosine; [19],22%
same,"Intracellular Adenosine, Brain",Intracellular Adenosine; in vivo,0.42 ± 0.06 nmol/mg protein
same,"Intracellular Adenosine, Heart",Intracellular Adenosine; in vivo,8.3 ± 1.0 nmol/mg protein
same,"Intracellular Adenosine, Brain",Intracellular Adenosine; [20],0.32 ± 0.03 nmol/mg protein
same,"Intracellular Adenosine, Heart",Intracellular Adenosine; [20],6.0 ± 0.4 nmol/mg protein
"CC(C)CCC[C@@H](C)[C@H]1CC[C@H]2[C@@H]3CC=C4C[C@@H](O)CC[C@]4(C)[C@H]3CC[C@]12C [CH, cholesterol]",prevention of DHEA-induced S phase depletion,HT-29 SF cells [17],very little effect at 48 hours and no effect at 72 hours
same,reversal of DHEA-induced growth inhibition,HT-29 SF cells [18],no such effect
"C[C@@](O)(CCO)CC(=O)O [MVA, mevalonic acid]",prevention of DHEA-induced S phase depletion,HT-29 SF cells [17],partially prevented this effect in the initial 48 hours but not after 72 hours
same,reversal of DHEA-induced growth inhibition,HT-29 SF cells [18],partially overcome
"5′-GGC CCA GGG CCA GCC-31 (antisense GGCCCAGGGCCAGCC; all phosphorothioate, sugars by position and methylation of C not given here) [Oligo IV, targets adenosine A3 receptor mRNA +386 to +401]",reduction of granulocyte numbers in bronchial lavage,adenosine A3 receptor,66%
same,reduction of total number of cells in bronchial lavage fluid,adenosine A3 receptor,40%
"5′-GATGGAGGCGGGCATGGCGGG-3 [Oligo A1MM3, reference compound]","effect upon any of the targeted receptors (A1, A2 or B2)",adenosine A1 receptor [13],absolutely no effect
same,effect on PC50 Adenosine value,adenosine A1 receptor [15],no effect
"Nc1nc(=O)c2c([nH]1)NCC(CNc1ccc(C(=O)N[C@@H](CCC(=O)O)C(=O)O)cc1)N2C=O (mixture of isomers) [Folinic Acid (F.A.), Folinic acid]",effect on adenosine levels when administered alone,Intracellular Adenosine; folinic acid 50 mg/kg intraperitoneally,increase in adenosine levels for all organs studied
same,effect of co-administration on steroid-mediated adenosine depletion,Intracellular Adenosine; folinic acid co-administered with DHEA or methyltestosterone,completely abrogated steroid-mediated adenosine depletion
same,"Intracellular Adenosine, Brain",Intracellular Adenosine; [21],0.72 ± 0.09 nmol/mg protein
same,"Intracellular Adenosine, Heart",Intracellular Adenosine; [21],12.4 ± 2.1 nmol/mg protein
"CC(C)=CCC/C(C)=C/CC/C(C)=C/CC/C=C(\C)CC/C=C(\C)CCC=C(C)C [SQ, squalene]",reversal of DHEA-induced growth inhibition,HT-29 SF cells [18],no such effect
